Experiment [1] relates to iC9.CAR.CD19 NALM-6 cells. The experiment in a line: In vitro activation of iC9 by AP1903, NALM-6 (qPCR). The format is cell-based, human. Conditions: 20 nM AP1903. As to the method: (§1) To induce the in vitro activation of iC9, cells were treated once with 20 nM of AP1903 (Medchemexpress, Cat. HY-16046). The percentage of CAR+ cells after the AP1903 treatment was evaluated by FACS at the indicated time points. […] Control cohort was infused with sterile PBS as vehicle solution. Tumor was monitored by weekly IVIS imaging analysis.
(§2) The average of vector copy number (VCN) per cell was determined by real-time PCR, using a TaqMan probe designed on the retroviral construct using the Primer Express® software (Applied Biosystems) and reported in Table 2 (iC9 Probe and primers iC9).
(§3) For VCN, each sample was analyzed in triplicate and the average of threshold cycles was used to quantify DNA copies in relation to the mean values of negative control samples. Relative gene expression was calculated using the house-keeping gene ACT1N1 (Hs_02249516 ACT1N1, ThermoFisher Scientific) qPCR was performed employing QuantStudio 12K Flex Real-Time PCR System (ThermoFisher Scientific). For IG/TR PCR-MRD of the DPs, each MRD value was calculated from the corresponding standard curve, and the results were normalized for values of the housekeeping Albumin gene. […]
On the technique in general: Real-time PCR tracks product formation cycle by cycle.

The test system of another experiment is iC9.CAR.CD19 RAJI cells. Nature of the experiment: In vitro activation of iC9 by AP1903, RAJI (qPCR). The format is cell-based, human. The settings on record: 20 nM AP1903. As to the method:
as §1, §2, §3

In another experiment the test system is iC9-T cells. Conditions: patients with GVHD after haploidentical iC9-T cells infusion; cited from earlier work.
Experiment [2] has as its system DAUDI, RAJI and NALM-6 iC9.CAR+ cells. Nature of the experiment: In vitro activation of iC9 by AP1903, all cellular models (FACS, VCN). The format is cell-based, human. As to the method:
as §1
(§4) Flow cytometry analysis was performed to determine cell surface antigens expression; monoclonal antibodies for CD45, CD3, CD19, CD22, CD10, CD34 (all from Becton Dickinson, USA) were combined with different fluorescence according to needs. iC9.CAR.CD19 expression was detected using a mAb directed to hCD34 epitope (anti-CD34 QBend-10 PE from R&D System, USA), or CD19 CAR Detection Reagent (Biotin; Miltenyi, Germany). Flow-cytometry analysis was performed using a BD LSRFortessa X-20 cytometer (BD Biosciences, USA) and analyzed by FACSDiva software (BD Biosciences, USA). FACS-sorting on CAR-transduced tumor cell lines was performed on a FACSAria (BD Biosciences, USA).
as §2, §3

The test system of a further experiment is iC9.CAR.CD19 DAUDI cells. Nature of the experiment: In vitro activation of iC9 by AP1903, DAUDI (FACS, qPCR). The format is cell-based, human. The settings on record: 20 nM AP1903. As to the method:
as §1, §4, §2, §3

The subject of experiment [3] is iC9.CAR.CD19LH-DAUDI cells. The experiment in a line: NSG xenograft, iC9.CAR.CD19LH-DAUDI, iC9 activation by AP1903. The format is in vivo, NSG mice. How it is done:
Schematic representation of the experimental design, with iC9.CAR.CD19LH positive FF-Luciferase positive DAUDI cells infused at day-3. At Day 0, mice were evaluated for leukemia engraftment and treated with 100 μg/mouse of AP1903 from day 0 to day 28. (B) Bioluminescence images of each control untreated mouse and each AP1903 treated mouse. Mice were monitored for more than 30 days after AP1903 withdrawal (C) Bioluminescence values over time for each treated mouse in the two cohorts, un-treated (black lines) or AP1903 treated (dotted line) mice. (D) Kaplan-Meier survival curve analysis of leukaemia-bearing mice untreated (black line) or AP1903 treated (blue line). ****p-value=<0.00001. The only mouse (#20) showing a persisting positive signal at IVIS analysis after AP1903 administration was sacrificed at day 35 together with a negative control (#11) and a positive control (mouse not exposed to AP1903 administration, #6), to characterize the leukemia cells.
as §1

Structures are written as SMILES.

With `CC[C@H](C(=O)N1CCCC[C@H]1C(=O)O[C@H](CCc1ccc(OC)c(OC)c1)c1cccc(OCC(=O)NCCNC(=O)COc2cccc([C@@H](CCc3ccc(OC)c(OC)c3)OC(=O)[C@@H]3CCCCN3C(=O)[C@@H](CC)c3cc(OC)c(OC)c(OC)c3)c2)c1)c1cc(OC)c(OC)c(OC)c1` [AP1903], the “transgene (TG) positivity in remaining cells after AP1903 exposure (qPCR)” value stood at 0.6% in experiment [1], 18.6% with iC9.CAR.CD19 RAJI cells and 22.8% in the experiment on iC9.CAR.CD19 DAUDI cells (DAUDI cells). Besides, the “residual iC9-T cells after AP1903 administration” value with iC9-T cells was 1%. For the same molecule, the “percentage of CAR+ leukemic cells” value in experiment [2] (20 nM AP1903, 6 hours) was “significant reduction in the percentage of CAR+ leukemic cells”. Moreover, in experiment [2] (20 nM AP1903, FIG. 8E, 10B, 10D), the “CD19 antigen detection on cells remaining after AP1903” value is recorded as “completed re-established detection of CD19 antigen”. Besides, in experiment [2] (across all the considered cellular models, 20 nM, FIG. 10F), the “average of VCN threshold in AP1903 treated B cells” value is 0.1±0.1. Moreover, the “re-expansion of iC9.CAR+ leukemic cells on prolonged culture” value with iC9.CAR.CD19 DAUDI cells (FIG. 8E) is “not associated to re-expansion”. Also, the “MFI of CAR expression in AP1903 treated cells” value in the experiment on iC9.CAR.CD19 DAUDI cells (threshold value, FIG. 10E) was found to be 142±22. The “complete CAR+ leukemia eradication, number of mice” value in experiment [3] (AP1903 100 μg/mouse i.p. day 1 to day 28) is reported as 9 out of 10. Further, in experiment [3] (AP1903 100 μg/mouse i.p., even after drug suspension, to day 63), the “survival of treated mice” value was determined as 100%. In experiment [3] (until day 63 (endpoint of the experiment)), the leukemia recurrence entry was “no mice showing leukemia recurrence”.

Values taken from patent US20240335470A1, “CAR T CELLS FOR TREATING CD19+, CD20+ OR CD22+ TUMORS OR B-CELL DERIVED AUTO-IMMUNE DISEASES” (OSPEDALE PEDIATRICO BAMBINO GESU', priority 2020, published 2024).
